What was measured:
barnyardgrass [1] = assay: Test A preemergence; format: in vivo, Echinochloa crus-galli; settings: for Barnyardgrass plant response rating (0 to 100 scale, 0 is no effect, 100 is complete control): 125 g ai/ha; for Barnyardgrass plant response rating: 500 g ai/ha, 0 to 100 scale where 0 is no effect and 100 is complete control
How it was run: (§1)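 Scoring: eye-based comparison with untreated controls, 0 for no effect through 100 for complete control, at about day 10. Treatments: directed soil spray preemergence; foliar spray postemergence on 2–10 cm plants at the one- to two-leaf stage. Medium: loam soil with sand.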

giant foxtail = assay: Test A preemergence; format: in vivo, Setaria faberii; settings: for Foxtail, Giant plant response rating (0 to 100 scale): 125 g ai/ha; for Foxtail, Giant plant response rating: 500 g ai/ha, 0 to 100 scale where 0 is no effect and 100 is complete control
How it was run: as §1

velvetleaf = assay: Test A preemergence; format: in vivo, Abutilon theophrasti
How it was run: as §1

blackgrass [2] = assay: Test C preemergence; format: in vivo, Alopecurus myosuroides; settings: for Blackgrass plant response rating: preemergence
How it was run: (§2)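 Visual ratings on a 0–100 scale (100 = complete control) were made versus untreated controls after 13–15 greenhouse days. Chemicals in a surfactant-containing non-phytotoxic solvent were applied either preemergence to seeds in loam–sand soil or postemergence to 1- to 4-leaf plants 2–18 cm tall.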

corn [3] = assay: Test C preemergence; format: in vivo, Zea mays; settings: for Corn plant response rating: preemergence
How it was run: as §2

morningglory = assay: Test C preemergence; format: in vivo, Ipomoea coccinea; settings: for Morningglory plant response rating: preemergence
How it was run: as §2

ragweed = assay: Test C preemergence; format: in vivo, Ambrosia elatior; settings: for Ragweed plant response rating: preemergence
How it was run: as §2

soybean = assay: Test C preemergence; format: in vivo, Glycine max; settings: for Soybean plant response rating: preemergence
How it was run: as §2

barnyardgrass [4] = assay: Test C preemergence; format: in vivo, Echinochloa crus-galli; settings: for Barnyardgrass plant response rating: preemergence
How it was run: as §2

oilseed rape = assay: Test C preemergence; format: in vivo, Brassica napus; settings: for Oilseed Rape plant response rating: preemergence
How it was run: as §2

waterhemp [5] = assay: Test C preemergence; format: in vivo, Amaranthus rudis; settings: for Waterhemp plant response rating: preemergence
How it was run: as §2

blackgrass [6] = assay: Test C postemergence; format: in vivo, Alopecurus myosuroides
How it was run: as §2

Italian ryegrass = assay: Test C postemergence; format: in vivo, Lolium multiflorum
How it was run: as §2

corn [7] = assay: Test C postemergence; format: in vivo, Zea mays
How it was run: as §2

lambsquarters = assay: Test C postemergence; format: in vivo, Chenopodium album
How it was run: as §2

pigweed = assay: Test C postemergence; format: in vivo, Amaranthus retroflexus
How it was run: as §2

barnyardgrass [8] = assay: Test C postemergence; format: in vivo, Echinochloa crus-galli
Description: (§3) Seeds of plant species selected from blackgrass (Alopecurus myosuroides), Italian ryegrass (Lolium multiflorum), wheat, winter (winter wheat, Triticum aestivum), galium (catchweed bedstraw, Galium aparine), corn (Zea mays), large (Lg) crabgrass (Digitaria sanguinalis), giant foxtail (Setaria faberii), johnsongrass (Sorghum halepense), lambsquarters (Chenopodium album), morningglory (Ipomoea coccinea), yellow nutsedge (Cyperus esculentus), pigweed (Amaranthus retroflexus), ragweed (common ragweed, Ambrosia elatior), soybean (Glycine max), barnyardgrass (Echinochloa crus-galli), oilseed rape (Brassica napus), waterhemp (common waterhemp, Amaranthus rudis), kochia (Kochia scoparia), wild oat (Avena fatua), surinam grass (Brachiaria decumbens), foxtail, green (green foxtail, Setaria viridis), goosegrass (Eleusine indica), bromegrass, downy (downy bromegrass, Bromus tectorum), nightshade (eastern black nightshade, Solanum ptycanthum), cocklebur (common cocklebur, Xanthium strumarium), cupgrass, woolly (woolly cupgrass, Eriochloa villosa), bermudagrass (Cynodon dactylon), sunflower, (common oilseed sunflower, Helianthus annuus), Russian thistle (Salsola kali), and velvetleaf (Abutilon theophrasti) were planted into a blend of loam soil and sand and treated preemergence with test chemicals formulated in a non-phytotoxic solvent mixture which included a surfactant.
(§4) At the same time, plants selected from these crop and weed species and also barley, winter (winter barley, Hordeum vulgare), windgrass (Apera spica-venti), chickweed (common chickweed, Stellaria media), deadnettle (henbit deadnettle, Lamium amplexicaule), and canarygrass (littleseed canarygrass, Phalaris minor) were planted in pots containing Redi-Earth® planting medium (Scotts Company, 14111 Scottslawn Road, Marysville, Ohio 43041) comprising spaghnum peat moss, vermiculite, wetting agent and starter nutrients and treated with postemergence applications of test chemicals formulated in the same manner. Plants ranged in height from 2 to 18 cm (1- to 4-leaf stage) for postemergence treatments. Treated plants and controls were maintained in a greenhouse for 13 to 15 days, after which time all species were compared to controls and visually evaluated. Plant response ratings, summarized in Table C, are based on a scale of 0 to 100 where 0 is no effect and 100 is complete control. A dash (-) response means no test result.

waterhemp [9] = assay: Test C postemergence; format: in vivo, Amaranthus rudis
Description: as §3, §4

[10] = 16 g ai/ha, scale 0 to 100 (0 no effect, 100 complete control)
[11] = 125 g ai/ha, scale 0 (no effect) to 100 (complete control)
[12] = Preemergence, 62 g ai/ha, scale 0 to 100, 0 no effect, 100 complete control
[13] = 31 g ai/ha, postemergence, visual rating, scale 0 to 100 (0 no effect, 100 complete control), 13 to 15 days
[14] = 125 g ai/ha, postemergence, visual rating, scale 0 to 100 (0 no effect, 100 complete control)
[15] = Postemergence, 62 g ai/ha, scale 0 to 100 (0 no effect, 100 complete control), 13 to 15 days

`CCOc1cnn(-c2ccccc2Oc2ncc(Cl)cn2)c1` [Compound 187] was tested, and the “Barnyardgrass plant response rating (0 to 100 scale, 0 is no effect, 100 is complete control)” value (barnyardgrass [1]) was 80, the “Barnyardgrass plant response rating” value (barnyardgrass [1]) was 100 and the “Foxtail, Giant plant response rating (0 to 100 scale)” value (giant foxtail) was 100. For the same compound, the “Foxtail, Giant plant response rating” value (giant foxtail) was 100, the “Velvetleaf plant response rating (0 to 100 scale)” value (velvetleaf; 125 g ai/ha) was 80 and the “Velvetleaf plant response rating” value (velvetleaf; 500 g ai/ha, 0 to 100 scale where 0 is no effect and 100 is complete control) was 100. The “Blackgrass plant response rating” value (blackgrass [2]; [10]) was 0, the “Blackgrass plant response rating” value (blackgrass [2]; [11]) was 100 and the “Plant response rating, Blackgrass” value (blackgrass [2]; [12]) was 30. For the same compound, the “Corn plant response rating” value (corn [3]; [10]) was 0, the “Corn plant response rating” value (corn [3]; [11]) was 5 and the “Plant response rating, Corn” value (corn [3]; [12]) was 5. The “Morningglory plant response rating” value (morningglory; [10]) was 0, the “Morningglory plant response rating” value (morningglory; [11]) was 5 and the “Plant response rating, Morningglory” value (morningglory; [12]) was 0. For the same compound, the “Ragweed plant response rating” value (ragweed; [10]) was 55, the “Ragweed plant response rating” value (ragweed; [11]) was 55 and the “Plant response rating, Ragweed” value (ragweed; [12]) was 45. The “Soybean plant response rating” value (soybean; [10]) was 5, the “Soybean plant response rating” value (soybean; [11]) was 85 and the “Plant response rating, Soybean” value (soybean; [12]) was 55. For the same compound, the “Barnyardgrass plant response rating” value (barnyardgrass [4]; [10]) was 5, the “Barnyardgrass plant response rating” value (barnyardgrass [4]; [11]) was 90 and the “Plant response rating, Barnyardgrass” value (barnyardgrass [4]; [12]) was 65. The “Oilseed Rape plant response rating” value (oilseed rape; [10]) was 70, the “Oilseed Rape plant response rating” value (oilseed rape; [11]) was 90 and the “Plant response rating, Oilseed Rape” value (oilseed rape; [12]) was 90. For the same compound, the “Waterhemp plant response rating” value (waterhemp [5]; [10]) was 25, the “Waterhemp plant response rating” value (waterhemp [5]; [11]) was 95 and the “Plant response rating, Waterhemp” value (waterhemp [5]; [12]) was 85.
With `N#Cc1cccc(Oc2ncc(Cl)cn2)c1-n1cc(-n2ccc(C(F)(F)F)n2)cn1` [Compound 284] the “Barnyardgrass plant response rating (0 to 100 scale, 0 is no effect, 100 is complete control)” value (barnyardgrass [1]) was 60, the “Barnyardgrass plant response rating” value (barnyardgrass [1]) was 90 and the “Foxtail, Giant plant response rating (0 to 100 scale)” value (giant foxtail) was 90. The “Foxtail, Giant plant response rating” value (giant foxtail) was 90, the “Blackgrass plant response rating” value (blackgrass [6]; [13]) was 5 and the “Plant response rating, Blackgrass” value (blackgrass [6]; [14]) was 5. The “Plant response rating (0 to 100), Blackgrass” value (blackgrass [6]; 250 g ai/ha, postemergence) was 5, the “Plant response rating, Blackgrass” value (blackgrass [6]; [15]) was 5 and the “Ryegrass, Italian plant response rating” value (Italian ryegrass; [13]) was 5. For the same compound, the “Plant response rating, Ryegrass, Italian” value (Italian ryegrass; [14]) was 5, the “Plant response rating (0 to 100), Ryegrass, Italian” value (Italian ryegrass; 250 g ai/ha, postemergence) was 5 and the “Plant response rating, Ryegrass, Italian” value (Italian ryegrass; [15]) was 5. For the same compound, the “Corn plant response rating” value (corn [7]; [13]) was 5, the “Plant response rating, Corn” value (corn [7]; [14]) was 20 and the “Plant response rating (0 to 100), Corn” value (corn [7]; 250 g ai/ha, postemergence) was 20. For the same compound, the “Plant response rating, Corn” value (corn [7]; [15]) was 10, the “Lambsquarters plant response rating” value (lambsquarters; [13]) was 70 and the “Plant response rating, Lambsquarters” value (lambsquarters; [14]) was 98. The “Plant response rating (0 to 100), Lambsquarters” value (lambsquarters; 250 g ai/ha, postemergence) was 98, the “Plant response rating, Lambsquarters” value (lambsquarters; [15]) was 85 and the “Pigweed plant response rating” value (pigweed; [13]) was 98. For the same compound, the “Plant response rating, Pigweed” value (pigweed; [14]) was 100, the “Plant response rating (0 to 100), Pigweed” value (pigweed; 250 g ai/ha, postemergence) was 100 and the “Plant response rating, Pigweed” value (pigweed; [15]) was 98. The “Barnyardgrass plant response rating” value (barnyardgrass [8]; [13]) was 10, the “Plant response rating, Barnyardgrass” value (barnyardgrass [8]; [14]) was 15 and the “Plant response rating (0 to 100), Barnyardgrass” value (barnyardgrass [8]; 250 g ai/ha, postemergence) was 15. For the same compound, the “Plant response rating, Barnyardgrass” value (barnyardgrass [8]; [15]) was 10, the “Waterhemp plant response rating” value (waterhemp [9]; [13]) was 85 and the “Plant response rating, Waterhemp” value (waterhemp [9]; [14]) was 98. The “Plant response rating (0 to 100), Waterhemp” value (waterhemp [9]; 250 g ai/ha, postemergence) was 100 and the “Plant response rating, Waterhemp” value (waterhemp [9]; [15]) was 85.

— patent US9695155B2, “Herbicidal substituted pyrimidinyloxy benzene compounds” (E. I. DU PONT DE NEMOURS AND COMPANY, priority 2013, dated 2017)
